“Also recorded” adds a separate entry of the source.
What was measured:
[1] = target: T1, Piezo1 (Mus musculus, UniProt E2JF22); assay: Lymphatic valve formation in Prox1-EGFP mice after perinatal Yoda1 administration; type: in vivo; conditions: Yoda1 70 μg/kg intraperitoneal at E18.5 and P0, evaluated at P1, mesenteries of the jejunum and the colon, tail skin
T1 construct: from tissue; host or cells: Prox1-EGFP mice (pregnant females at E18.5 and pups at P0); lymphatic vessels of mesentery (jejunum, colon) and tail skin
T1 sequence (E2JF22 whole entry): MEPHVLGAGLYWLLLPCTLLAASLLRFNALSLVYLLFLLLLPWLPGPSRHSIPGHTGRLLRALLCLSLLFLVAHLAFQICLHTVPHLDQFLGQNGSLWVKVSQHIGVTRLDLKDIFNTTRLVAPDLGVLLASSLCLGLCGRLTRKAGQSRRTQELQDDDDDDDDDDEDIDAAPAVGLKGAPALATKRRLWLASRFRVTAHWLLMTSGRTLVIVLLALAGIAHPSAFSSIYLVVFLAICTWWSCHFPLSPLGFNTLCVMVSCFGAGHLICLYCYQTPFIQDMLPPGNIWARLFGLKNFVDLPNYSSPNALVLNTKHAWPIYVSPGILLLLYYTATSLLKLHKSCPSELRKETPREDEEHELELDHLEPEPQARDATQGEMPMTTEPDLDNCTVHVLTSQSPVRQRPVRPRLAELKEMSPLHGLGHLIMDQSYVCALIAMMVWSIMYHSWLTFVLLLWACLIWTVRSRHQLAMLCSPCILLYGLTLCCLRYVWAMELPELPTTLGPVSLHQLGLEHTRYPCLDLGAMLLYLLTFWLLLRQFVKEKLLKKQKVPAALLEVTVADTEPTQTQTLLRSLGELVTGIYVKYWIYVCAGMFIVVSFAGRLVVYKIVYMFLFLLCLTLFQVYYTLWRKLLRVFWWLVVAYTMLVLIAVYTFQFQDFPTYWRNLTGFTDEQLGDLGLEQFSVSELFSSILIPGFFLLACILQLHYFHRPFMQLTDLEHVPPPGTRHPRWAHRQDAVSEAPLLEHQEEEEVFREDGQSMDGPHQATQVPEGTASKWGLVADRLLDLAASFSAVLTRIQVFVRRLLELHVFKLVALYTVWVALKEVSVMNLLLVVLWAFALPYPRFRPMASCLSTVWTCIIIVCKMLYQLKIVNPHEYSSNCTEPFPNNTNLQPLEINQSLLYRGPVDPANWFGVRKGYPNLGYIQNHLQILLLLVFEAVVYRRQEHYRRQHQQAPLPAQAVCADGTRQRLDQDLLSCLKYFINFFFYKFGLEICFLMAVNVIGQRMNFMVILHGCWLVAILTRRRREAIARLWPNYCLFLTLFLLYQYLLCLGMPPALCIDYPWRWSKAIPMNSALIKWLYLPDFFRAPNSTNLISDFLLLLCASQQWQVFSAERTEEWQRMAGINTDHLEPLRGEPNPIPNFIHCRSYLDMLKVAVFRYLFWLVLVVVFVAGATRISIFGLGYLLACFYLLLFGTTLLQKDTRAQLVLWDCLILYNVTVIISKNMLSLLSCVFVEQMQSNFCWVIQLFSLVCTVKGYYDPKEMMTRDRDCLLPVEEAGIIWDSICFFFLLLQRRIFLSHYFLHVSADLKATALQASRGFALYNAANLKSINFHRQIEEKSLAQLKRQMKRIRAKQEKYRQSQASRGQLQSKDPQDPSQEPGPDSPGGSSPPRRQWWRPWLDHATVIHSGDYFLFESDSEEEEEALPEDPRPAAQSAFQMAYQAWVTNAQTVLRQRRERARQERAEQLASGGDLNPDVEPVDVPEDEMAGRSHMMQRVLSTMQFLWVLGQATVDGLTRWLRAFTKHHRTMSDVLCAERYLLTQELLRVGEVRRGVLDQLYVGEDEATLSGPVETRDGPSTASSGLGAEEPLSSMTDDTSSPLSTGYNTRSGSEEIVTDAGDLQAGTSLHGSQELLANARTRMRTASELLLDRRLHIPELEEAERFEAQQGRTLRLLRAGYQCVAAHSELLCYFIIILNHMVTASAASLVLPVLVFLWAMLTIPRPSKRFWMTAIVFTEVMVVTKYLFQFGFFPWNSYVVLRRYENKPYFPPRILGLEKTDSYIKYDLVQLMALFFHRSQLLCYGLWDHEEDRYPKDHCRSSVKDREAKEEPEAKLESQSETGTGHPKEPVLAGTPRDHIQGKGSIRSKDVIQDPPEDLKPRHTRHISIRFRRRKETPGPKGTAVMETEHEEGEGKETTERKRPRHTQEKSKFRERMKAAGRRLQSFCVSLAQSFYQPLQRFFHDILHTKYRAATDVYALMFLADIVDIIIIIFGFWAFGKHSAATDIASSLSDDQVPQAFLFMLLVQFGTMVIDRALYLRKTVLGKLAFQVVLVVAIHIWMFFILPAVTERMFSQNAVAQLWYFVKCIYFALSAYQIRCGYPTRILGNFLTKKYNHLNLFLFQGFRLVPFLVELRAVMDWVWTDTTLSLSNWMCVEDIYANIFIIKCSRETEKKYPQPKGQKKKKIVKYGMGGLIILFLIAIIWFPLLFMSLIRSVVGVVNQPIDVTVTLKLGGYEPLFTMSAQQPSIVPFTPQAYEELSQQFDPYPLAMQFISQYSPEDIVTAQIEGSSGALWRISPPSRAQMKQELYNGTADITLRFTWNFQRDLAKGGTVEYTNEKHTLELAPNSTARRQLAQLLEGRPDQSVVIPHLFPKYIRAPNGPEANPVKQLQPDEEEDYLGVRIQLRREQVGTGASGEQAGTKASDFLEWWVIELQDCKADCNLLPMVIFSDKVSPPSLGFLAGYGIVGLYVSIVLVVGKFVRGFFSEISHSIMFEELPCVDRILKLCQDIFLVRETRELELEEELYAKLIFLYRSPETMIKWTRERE
Text: All mouse works have been approved by the Institutional Animal Care and Use Committee, University of Southern California (PI: YK Hong). Sources of the mice are: Prox1-EGFP (Tg(Prox1-EGFP)KY221Gsat, Mutant Mouse Resource and Research Centers) (35), Prox1-tdTomato (Tg(Prox1-tdTomato)TA76Gsat/Mmucd, Mutant Mouse Resource and Research Centers) (28), Prox1-CreER^T2 (a kind gift from Dr. Taija Makinen, Uppsala University, Sweden) (17), Piezo1^fl/fl (Piezo1^tm2.1Apat/J. Jackson Laboratory) (29). Mice were maintained in mixed outbred backgrounds. […]
Pregnant Prox1-EGFP females at E18.5 were intraperitoneal injected with vehicle or Yoda1 (70 μg/kg). […] Equivalent anatomic locations were selected for capturing images in the vehicle and Yoda1-treated groups, and their lymphatic valve formation was investigated and quantified (Supplemental FIG. 5).
As Piezo1 was originally identified as a mechanically activated cation channel (21-25), we next asked whether another physical force, such as cell stretching, could stimulate Piezo1 and induce the molecular signature of lymphatic valves. […] Prox1-EGFP mice were perinatally administrated at E18.5 and P0 with a chemical agonist of Piezo1, Yoda1 (30), and lymphatic valve formation in the small intestine, colon, and skin was evaluated at P1. […]

[2] = tested on: cultured LECs; assay: Lymphatic valve gene expression in Yoda1-treated cultured LECs in the absence of OSS; type: cell-based, human
Protocol: As Piezo1 was originally identified as a mechanically activated cation channel (21-25), we next asked whether another physical force, such as cell stretching, could stimulate Piezo1 and induce the molecular signature of lymphatic valves. To address this question, primary LECs were subjected to cyclic cell stretching (112%, 12 Hz) for 4, 8, and 24 hours in the absence of OSS, and the expression of the lymphatic valve genes were investigated. […] In addition, we investigated whether chemical activation of Piezo1 promotes lymphatic valve formation in animals. Prox1-EGFP mice were perinatally administrated at E18.5 and P0 with a chemical agonist of Piezo1, Yoda1 (30), and lymphatic valve formation in the small intestine, colon, and skin was evaluated at P1. […] We then asked whether Yoda1 could activate cultured LECs to upregulate lymphatic valve genes in the absence of OSS.

## Clc1cccc(Cl)c1CSc1nnc(-c2cnccn2)s1 [Yoda1, 2-[(2,6-dichlorophenyl)methylsulfanyl]-5-pyrazin-2-yl-1,3,4-thiadiazole]
[1]
  lymphatic valve formation: significantly expedited; also recorded: accelerated lymphatic valve formation
[2]
  FOXC2 expression: rather downregulated
[2]; Piezo1-dependent
  CX37 expression: upregulates
  GATA2 expression: upregulates
  ITGA9 expression: upregulates
  LAMA5 expression: upregulates

From patent publication US12178902B1, “Methods and compositions for fluid drainage by Piezo ion channel activation” (UNIVERSITY OF SOUTHERN CALIFORNIA, priority 2020, dated 2024)
